Data reported in patent US20260285850A1, “SUBSTITUTED OXAZOLIDINONES AND IMIDAZOLINONES AS HERBICIDES” (FMC CORPORATION, priority 2023, published 2026).

Columns and labels:
Type in all cases: in vivo
[1] = system: oat, wild (wild oat, Avena fatua); test: Test A preemergence soil spray, visual injury rating 0-100; settings: 10 days
Procedure, shortened: (§1)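 Preemergence directed soil spray or postemergence spray (2-10 cm, 1-2 leaf); loam/sand mix; compound in non-phytotoxic solvent + surfactant. Greenhouse, 10 d. Visual injury vs untreated, 0 = none, 100 = complete control.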

[2] = system: palmer (palmer amaranth, palmer pigweed, Amaranthus palmeri); test: as above; settings: 10 days
Procedure, shortened: as §1

[3] = system: ragweed (common ragweed, Ambrosia artemisiifolia); test: as above; settings: 10 days
Procedure, shortened: as §1

[4] = system: ryegrass, Italian (italian ryegrass, Lolium multiflorum); test: as above; settings: 10 days
Procedure, shortened: as §1

[5] = system: corn (Zea mays); test: as above; settings: 10 days
Procedure, shortened: as §1

[6] = system: barnyardgrass (Echinochloa crus-galli); test: as above; settings: 10 days
Procedure, shortened: as §1

[7] = system: soybean (Glycine max); test: as above; settings: 10 days
Procedure, shortened: as §1

[8] = system: kochia (Bassia scoparia); test: as above; settings: 10 days
Procedure, shortened: as §1

[9] = system: blackgrass (Alopecurus myosuroides); test: as above; settings: 10 days
Procedure, shortened: as §1

[10] = system: green foxtail (Setaria viridis); test: as above; settings: 10 days
Procedure, shortened: as §1

[11] = system: wheat (Triticum aestivum); test: as above; settings: 10 days
Procedure, shortened: as §1

[12] = system: ducksalad (Heteranthera limosa); test: Test B flooded paddy test, visual plant response rating 0-100; settings: 250 g ai/ha, Flood, applied to paddy water, evaluated after 13 days
Procedure, shortened: (§2)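 Visual scores versus untreated controls were recorded 13 days after treatment of greenhouse-held plants. At the 2-leaf stage, pots were flooded 3 cm above the soil surface and compounds added straight to the water.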

[13] = system: barnyardgrass (Echinochloa crusgalli); test: as above; settings: 250 g ai/ha, Flood, applied to paddy water, evaluated after 13 days
Procedure, shortened: as §2

[14] = system: sedge, umbrella (small-flower umbrella sedge, Cyperus difformis); test: as above; settings: 250 g ai/ha, Flood, applied to paddy water, evaluated after 13 days
Procedure, shortened: as §2

[15] = system: rice (Oryza sativa); test: as above; settings: 250 g ai/ha, Flood, applied to paddy water, evaluated after 13 days
Procedure, shortened: as §2

[16] = system: oat, wild (wild oat, Avena fatua); test: Test A postemergence application, visual injury rating 0-100
Procedure, shortened: as §1

[17] = system: palmer (palmer amaranth, palmer pigweed, Amaranthus palmeri); test: as above
Procedure, shortened: as §1

[18] = system: ragweed (common ragweed, Ambrosia artemisiifolia); test: as above
Procedure, shortened: as §1

[19] = system: galium (catchweed bedstraw, Galium aparine); test: as above; settings: Postemergence, 16 g ai/ha, greenhouse 10 days; 0 no effect, 100 complete control
Procedure, shortened: as §1

[20] = system: ryegrass, Italian (italian ryegrass, Lolium multiflorum); test: as above
Procedure, shortened: as §1

[21] = system: corn (Zea mays); test: as above
Procedure, shortened: as §1

[22] = system: barnyardgrass (Echinochloa crus-galli); test: as above
Procedure, shortened: as §1

[23] = system: soybean (Glycine max); test: as above
Procedure, shortened: as §1

[24] = system: kochia (Bassia scoparia); test: as above
Procedure, shortened: as §1

[25] = system: blackgrass (Alopecurus myosuroides); test: as above
Procedure, shortened: as §1

[26] = system: green foxtail (Setaria viridis); test: as above
Procedure, shortened: as §1

[27] = system: wheat (Triticum aestivum); test: as above
Procedure, shortened: as §1

[28] = system: horseweed (Erigeron canadensis); test: as above
Procedure, shortened: as §1

[29] = 62 g ai/ha, 0 = no effect, 100 = complete control
[30] = 62 g ai/ha, postemergence, 10 days, 0 = no effect, 100 = complete control
[31] = Postemergence, 16 g ai/ha, greenhouse 10 days, 0 no effect, 100 complete control

`COC(=O)C1=CCC(NC(=O)C2(C)CN(c3cc(Cl)cc(Cl)c3)C(=O)O2)C1` (stereo not drawn) [Compound 149] was tested, and the “Oat, Wild plant response rating” value ([1]; 16 g ai/ha, 0 to 100 scale) was 0, the “Oat, Wild plant response rating (0-100)” value [1, 29] was 20 and the “Pigweed, Palmer plant response rating” value ([2]; 16 g ai/ha, 0 to 100 scale) was 90. For the same compound, the “Pigweed, Palmer plant response rating (0-100)” value [2, 29] was 100, the “Ragweed plant response rating” value ([3]; 16 g ai/ha, 0 to 100 scale) was 0 and the “Ragweed plant response rating (0-100)” value [3, 29] was 30. For the same compound, the “Ryegrass, Italian plant response rating” value ([4]; 16 g ai/ha, 0 to 100 scale) was 20, the “Ryegrass, Italian plant response rating (0-100)” value [4, 29] was 80 and the “Corn plant response rating” value ([5]; 16 g ai/ha, 0 to 100 scale) was 0. For the same compound, the “Corn plant response rating (0-100)” value [5, 29] was 30, the “Barnyardgrass plant response rating” value ([6]; 16 g ai/ha, 0 to 100 scale) was 60 and the “Barnyardgrass plant response rating (0-100)” value [6, 29] was 90. The “Soybean plant response rating” value ([7]; 16 g ai/ha, 0 to 100 scale) was 0, the “Soybean plant response rating (0-100)” value [7, 29] was 0 and the “Kochia plant response rating” value ([8]; 16 g ai/ha, 0 to 100 scale) was 0. The “Kochia plant response rating (0-100)” value [8, 29] was 50, the “Blackgrass plant response rating” value ([9]; 16 g ai/ha, 0 to 100 scale) was 0 and the “Blackgrass plant response rating (0-100)” value [9, 29] was 0. The “Foxtail, Green plant response rating” value ([10]; 16 g ai/ha, 0 to 100 scale) was 30, the “Foxtail, Green plant response rating (0-100)” value [10, 29] was 90 and the “Wheat plant response rating” value ([11]; 16 g ai/ha, 0 to 100 scale) was 20. For the same compound, the “Wheat plant response rating (0-100)” value [11, 29] was 70, the “Plant response rating, Ducksalad (0 to 100 scale, 0 is no effect and 100 is complete control)” value [12] was 95 and the “Plant response rating, Barnyardgrass (0 to 100 scale, 0 is no effect and 100 is complete control)” value [13] was 95. For the same compound, the “Plant response rating, Sedge, Umbrella (0 to 100 scale, 0 is no effect and 100 is complete control)” value [14] was 95, the “Plant response rating, Rice (0 to 100 scale, 0 is no effect and 100 is complete control)” value [15] was 90 and the “Oat, Wild plant response rating (0-100)” value [16, 30] was 90. For the same compound, the “Oat, Wild plant response rating (0 to 100 scale)” value [16, 31] was 30, the “Pigweed, Palmer plant response rating (0-100)” value [17, 30] was 90 and the “Pigweed, Palmer plant response rating (0 to 100 scale)” value [17, 31] was 90. The “Ragweed plant response rating (0-100)” value [18, 30] was 50, the “Ragweed plant response rating (0 to 100 scale)” value [18, 31] was 20 and the “Galium plant response rating (0 to 100 scale)” value [19] was 60. For the same compound, the “Ryegrass, Italian plant response rating (0-100)” value [20, 30] was 80, the “Ryegrass, Italian plant response rating (0 to 100 scale)” value [20, 31] was 80 and the “Corn plant response rating (0-100)” value [21, 30] was 100. The “Corn plant response rating (0 to 100 scale)” value [21, 31] was 100, the “Barnyardgrass plant response rating (0-100)” value [22, 30] was 100 and the “Barnyardgrass plant response rating (0 to 100 scale)” value [22, 31] was 100. For the same compound, the “Soybean plant response rating (0-100)” value [23, 30] was 90, the “Soybean plant response rating (0 to 100 scale)” value [23, 31] was 60 and the “Kochia plant response rating (0-100)” value [24, 30] was 90. For the same compound, the “Kochia plant response rating (0 to 100 scale)” value [24, 31] was 80, the “Blackgrass plant response rating (0-100)” value [25, 30] was 90 and the “Blackgrass plant response rating (0 to 100 scale)” value [25, 31] was 90. The “Foxtail, Green plant response rating (0-100)” value [26, 30] was 90, the “Foxtail, Green plant response rating (0 to 100 scale)” value [26, 31] was 90 and the “Wheat plant response rating (0-100)” value [27, 30] was 90. For the same compound, the “Wheat plant response rating (0 to 100 scale)” value [27, 31] was 80, the “Horseweed plant response rating (0-100)” value [28, 30] was 70 and the “Horseweed plant response rating (0 to 100 scale)” value [28, 31] was 50.
